Holding throughout (type): cell-based
One data set deals with O-GlcNAc on nup62. The data set can be described thus: O-GlcNAc on nup62 immunoprecipitated from treated cells, chemoenzymatic labelling. As to conditions: 250 μM, 24 h; streptavidin probe. The procedure: Immunoprecipitation of nup62: nup62 was immunoprecipitated from COS-7 cell lysates using the procedure described in Ref.^9. Following washing of the beads, and prior to elution, nup62 was incubated in the absence or presence of BtGH84 (overexpressed and purified as described previously^43) shaking for 2 h at room temperature, which would allow O-GlcNAc levels on nup62 to be assessed. nup62 was subsequently eluted from the beads upon addition of SDS loading buffer and boiled for 10 min.
Click-iT® kit for labelling O-GlcNAc residues: The ‘Click-iT® O-GlcNAc Enzymatic Labeling System’ was purchased from Invitrogen, and essentially the manufacturer's protocol was followed with some alterations. nup62 was immunoprecipitated and eluted from the beads in 1% SDS in 20 mM Hepes, pH 7.9, and boiled for 10 min; this was used as the substrate for the chemoenzymatic labeling using UDP-GalNAz and GalTl. Following the overnight reaction, biotinylated phosphine (in 20% DMF) was added at a final concentration of 50 μM and incubated at 37° C. for […]. The reaction was stopped by the addition of SDS-PAGE loading buffer, and the samples were boiled for 10 min. Samples were run on a gel and transferred. The same procedure as described for the western blots was used, starting from the second blocking step. Blots were then probed with HRP-conjugated streptavidin (Pierce). […]

For the next data set, the system named is Primary CLL cells. The data set can be described thus: Primary CLL cells, proliferation and toxicity with or without cytokine stimulation. As to conditions: 5 days. The procedure: Primary CLL cells, obtained from Dr. David Spaner at the University of Toronto, were tested for their response to Ac-5SGlcNAc (9). Cells were plated at a confluency of 1 million cells/mL, and treated with between 0-250 μM 9, in the presence or absence of cytokine (1000 U/mL IL-2 and 1 μg/mL Resiquimod) stimulation to mimic cancer progression. Cells were observed over the course of 5 days, and harvested after this time into SDS-PAGE loading buffer before being subjected to western blotting.

The test system of data set [1] is O-GlcNAc levels in different cell lines (COS-7, CHO, SK-N-SH, HepG2, PC12, mouse hybridoma, EMEG32-/-). The data set can be described thus: Western blot of O-GlcNAc levels in various cell lines. As to conditions: 50 μM (100 μM for PC12), 24 h; listed as Ac-5SGlcNAc. The procedure: FIG. 2L. Western blots of cell lysates from different cell lines following no (C), Ac-GlcNAc (G) or Ac-5SGlcNAc (5SG) administration at 50 μM (or 100 μM for PC12 cells) for 24 h. Upper panel, probed with anti-O-GlcNAc antibody (CTD110.6); lower panel, anti-actin antibody. Cell lines used: COS-7 (African green monkey kidney cell line), CHO (Chinese hamster ovary cell line), SK-N-SH (human neuroblastoma cell line), HepG2 (human liver carcinoma cell line), PC12 (rat adrenal medulla pheochromocytoma cell line, which terminally differentiate upon nerve growth factor treatment), mouse hybridoma cell line and EMEG32^−/− (mouse embryonic fibroblasts deficient in glucosamine-6-phosphate acetyltransferase).
Cell culture: Cells were grown in an incubator at 37° C. and 5% CO2 atmosphere. Media and serum were purchased from Invitrogen. COS-7 cells were cultured in Dulbecco's modified Eagle's medium (DMEM) with 5% fetal bovine serum (FBS), and were typically 80-100% confluent prior to experimentation. HepG2, SK-N-SH, and EMEG32^−/− cells were cultured in Dulbecco's modified Eagle's medium (DMEM) with 5% fetal bovine serum (FBS), CHO cells in DMEMF-12 with 5% FBS and PC12 cells in DMEM with 5% FBS and 5% horse serum. Prior to experimentation, PC12 cells were plated at a density of 3-4×10^5 cells10 cm plate, which had been pre-treated with 5 μgcm^2 rat tail collagen (BD Biosciences). […]
A general note: In western blotting, separated proteins are transferred to a membrane and probed.

“Also recorded” adds a separate entry of the source.

Consider `CC(=O)NC1C(OC(C)=O)SC(COC(C)=O)C(OC(C)=O)C1OC(C)=O` [Compound 9, N-Acetyl-1,3,4,6-tetra-O-acetyl-α-D-5-thio-glucosamine], for which the “O-GlcNAc modification of immunoprecipitated nup62” value in the data set with O-GlcNAc on nup62 was “shows almost no modification”. Besides, the toxicity to cells result with Primary CLL cells (0-250 μM, unstimulated or stimulated) is “not toxic to either unstimulated or stimulated cells”. In the data set with Primary CLL cells (50 μM and higher, IL-2 and Resiquimod stimulation), the “proliferation of cytokine-stimulated cells” value is “the proliferation that was obvious in untreated stimulated cells was absent”. Besides, in data set [1], the “O-GlcNAc levels in the cell lines tested” value is “Various other cell lines showed equivalent responses; also recorded: near complete loss of O-GlcNAc in the cell lines tested”.

The values are drawn from patent US20150259371A1, “METHODS AND COMPOUNDS FOR INHIBITING GLYCOSYLTRANSFERASES” (SIMON FRASER UNIVERSITY, priority 2010, published 2015).
